Values of other authors in US20260108637A1, “USES OF PSMA-TARGETING AND TSPO-TARGETING COMPOUNDS FOR EVALUATION OF INJURIES IN THE PERIPHERAL NERVOUS SYSTEM” (The Johns Hopkins University, priority 2023, published 2026).

Target: GCPII (Homo sapiens, UniProt Q04609)
Conditions: described previously, Chen et al., 2009

GCPII, sequence (Q04609 whole entry, species assumed): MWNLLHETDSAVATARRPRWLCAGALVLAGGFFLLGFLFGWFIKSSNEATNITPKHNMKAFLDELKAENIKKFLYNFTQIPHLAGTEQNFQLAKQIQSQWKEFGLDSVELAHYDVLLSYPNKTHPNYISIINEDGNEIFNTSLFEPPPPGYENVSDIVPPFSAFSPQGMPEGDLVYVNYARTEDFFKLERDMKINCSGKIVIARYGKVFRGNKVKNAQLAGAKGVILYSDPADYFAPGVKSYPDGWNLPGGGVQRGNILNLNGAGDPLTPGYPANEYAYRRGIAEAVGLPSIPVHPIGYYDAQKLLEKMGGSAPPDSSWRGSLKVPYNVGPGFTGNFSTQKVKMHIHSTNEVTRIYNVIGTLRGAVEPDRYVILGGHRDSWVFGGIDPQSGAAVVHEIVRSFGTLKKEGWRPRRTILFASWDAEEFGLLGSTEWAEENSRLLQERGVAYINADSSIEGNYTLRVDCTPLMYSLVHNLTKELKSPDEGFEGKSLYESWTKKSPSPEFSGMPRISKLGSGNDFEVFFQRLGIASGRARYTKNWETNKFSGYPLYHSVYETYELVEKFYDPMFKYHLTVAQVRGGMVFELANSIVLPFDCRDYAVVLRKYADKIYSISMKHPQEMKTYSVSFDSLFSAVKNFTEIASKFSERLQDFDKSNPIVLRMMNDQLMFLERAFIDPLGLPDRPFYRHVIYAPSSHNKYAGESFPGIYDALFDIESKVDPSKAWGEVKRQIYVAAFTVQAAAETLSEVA

CC1(C)C(/C=C/C2=C(Oc3ccc(S(=O)(=O)O)cc3)C(=C/C=C3/N(CCCCS(=O)(=O)O)c4ccc(S(=O)(=O)O)cc4C3(C)C)/CCC2)=[N+](CCCCCC(=O)NCCCCC(NC(=O)CCCCCCC(=O)NCCCC[C@H](NC(=O)N[C@@H](CCC(=O)O)C(=O)O)C(=O)O)C(=O)O)c2ccc(S(=O)(=O)[O-])cc21 (stereo partly shown) [YC27]
Ki: 0.37 nM
